Reference: publication PMC9036655 (RSC Advances, 2021)
Converted amounts (≈) assume the structure as drawn.

Legend:
Assay in all cases: Antibacterial spectrum test, agar double dilution MIC
Type in all cases: cell-based
[1] = test system: Klebsiella pneumoniae Esbls^−17-11
[2] = test system: Escherichia coli Esbls^−16-23
[3] = test system: Escherichia coli Esbls^−16-24
[4] = test system: Escherichia coli ATCC25922
[5] = test system: Klebsiella pneumoniae Esbls^−17-12
[6] = test system: Pseudomonas aeruginosa 17-2; settings: 172

MIC [1]: 0.03 µg/mL (≈ 0.083 µM)
MIC [2]: 16 µg/mL (≈ 44.3 µM)
MIC [3]: < 0.008 µg/mL
MIC [4]: < 0.008 µg/mL
MIC [5]: < 0.008 µg/mL
MIC [6]: 16 µg/mL (≈ 44.3 µM)
Compound: C[C@H]1COc2c(N3CCN(C)CC3)c(F)cc3c(=O)c(C(=O)O)cn1c23 [Levofloxacin tablets, Levofloxacin]
